In one assay the test system is Spermacoce latifolia. Description: Greenhouse post-emergence herbicidal efficacy, % weed control. The class given is in vivo. The following applies: Table 7, L-glufosinate ammonium 150, haloxyfop 50 g/ha. The text has this: (§1) This effectiveness of all treatments can be evaluated according to Colby's equation. In the Colby's equation given below, E is the expected efficacy of combination of L-glufosinate, salts, esters, or combinations thereof, and an herbicide of the phenoxypropionic herbicide class, • X is the observed efficacy of L-glufosinate, salts, esters, or combinations thereof and • Y is the observed efficacy of the herbicide of the phenoxypropionic herbicide class.
(§2) Observed efficacy values i.e. X and Y are % weed control for L-glufosinate, salts, esters, or combinations thereof and an herbicide of the phenoxypropionic herbicide class. If observed efficacy of combination of L-glufosinate, salts, esters, or combinations thereof and the herbicide of the phenoxypropionic herbicide class is greater than its expected efficacy, then combination is determined to be synergistic. If observed efficacy is equal to or less than expected efficacy, then combination is determined to be non-synergistic.
(§3) Methodology: Greenhouse trials were carried out to evaluate the efficacy of the combination of L-glufosinate ammonium and phenoxypropionic herbicides—haloxyfop, quizalofop-ethyl, quizalofop-P-tefuryl—on weeds Eleusine indica, Brachiaria decumbens, Spermacoce latifolia and Glycine max.
(§4) The soil used was sandy clay loam-Sand: 68.0%; Silt: 8.0%; Clay: 24.0%.
(§5) All treatments were in 4 replications per treatment with a spray volume of […].
(§6) The expected efficacy of a combination of L-glufosinate and the other herbicides was calculated using the well-established Colby method. Any difference between the observed and “expected” efficacy could be attributed to synergy between the two compounds. (Colby, S. R., Weeds, 1967 (15), p. 20-22).
Experiment was conducted to assess the efficacy herbicidal combination comprising L-glufosinate ammonium (glufosinate-p-ammonium) and haloxyfop to control the weed, Spermacoce latifolia.
The percentage efficacy was calculated after 7, 14, 21, 28, 35 days of application (DAA). The target weed was Spermacoce latifolia, and the concentration of the herbicide and the results are recorded in the table 7 below: […]

The subject of the next assay is Brachiaria decumbens. The description is as above. The class given is in vivo.
Description: as §1, §2, §3, §4, §5, §6
Experiment was conducted to assess the efficacy herbicidal combination comprising L-glufosinate ammonium (glufosinate-p-ammonium) and haloxyfop to control the weed, Brachiaria decumbens.
The percentage efficacy was calculated after 7, 14 days of application (DAA). The target weed was Brachiaria decumbens, and the concentration of the herbicide and the results are recorded in the table 1 below:
Experiment was conducted to assess the efficacy herbicidal combination comprising L-glufosinate ammonium (glufosinate-p-ammonium) and quizalofop-ethyl to control the weed, Brachiaria decumbens.
The percentage efficacy was calculated after 28 and 35 days of application (DAA). The target weed was Brachiaria decumbens, and the concentration of the herbicide and the results are recorded in the table 2 below:
Experiment was conducted to assess the efficacy herbicidal combination comprising L-glufosinate ammonium (glufosinate-p-ammonium) and quizalofop-P-tefuryl to control the weed, Brachiaria decumbens.
The percentage efficacy was calculated after 14, 21, 28, 35 days of application (DAA). The target weed was Brachiaria decumbens, and the concentration of the herbicide and the results are recorded in the table 3 below: […]

A further assay relates to Eleusine indica. The description is as above. In kind it is in vivo. The following applies: for Control %: Table 6, L-glufosinate ammonium 150, quizalofop-p-tefuryl 25 g/ha.
Description: as §1, §2, §3, §4, §5, §6
Experiment was conducted to assess the efficacy herbicidal combination comprising L-glufosinate ammonium (glufosinate-p-ammonium) and haloxyfop to control the weed, Eleusine indica.
The percentage efficacy was calculated after 7 days of application (DAA). The target weed was Eleusine indica, and the concentration of the herbicide and the results are recorded in the table 4 below:
Experiment was conducted to assess the efficacy herbicidal combination comprising L-glufosinate ammonium (glufosinate-p-ammonium) and quizalofop-ethyl to control the weed, Eleusine indica.
The percentage efficacy was calculated after 21 days of application (DAA). The target weed was Eleusine indica, and the concentration of the herbicide and the results are recorded in the table 5 below:
Experiment was conducted to assess the efficacy herbicidal combination comprising L-glufosinate ammonium (glufosinate-p-ammonium) and quizalofop-P-tefuryl to control the weed, Eleusine indica.
The percentage efficacy was calculated after 21, 28, 35 days of application (DAA). The target weed was Eleusine indica, and the concentration of the herbicide and the results are recorded in the table 6 below: […]

The subject of another assay is Glycine max. Described as above. The class given is in vivo. The note with it: for % control: Table 8, L-glufosinate ammonium 150, haloxyfop 50 g ai/ha.
Description: as §1, §2, §3, §4, §5, §6
Experiment was conducted to assess the efficacy herbicidal combination comprising L-glufosinate ammonium (glufosinate-p-ammonium) and haloxyfop to control the weed, Glycine max.
The percentage efficacy was calculated after 3, 7, 14, 21, 28, 35 days of application (DAA). The target weed was Glycine max, and the concentration of the herbicide and the results are recorded in the table 8 below:
Experiments were conducted to assess the efficacy of herbicidal combination comprising L-glufosinate ammonium (glufosinate-p-ammonium) and quizalofop-ethyl to control the weedy Glycine max.
The percentage efficacy was calculated after 3, 28 and 35 days of applications (DAA). The target weed was Glycine max, and the concentration of the herbicide and the results are recorded in the table 9 below:
Experiments were conducted to assess the efficacy of herbicidal combination comprising L-glufosinate ammonium (glufosinate-p-ammonium) and quizalofop-p-tefuryl to control the weedy Glycine max.
The percentage efficacy was calculated after 3, 28 and 35 days of applications (DAA). The target weed was Glycine max, and the concentration of the herbicide and the results are recorded in the table 10 below.

The test system of assay [1] is Viola arvensis, Bromus spp., Lolium spp., Agropyron repens and Urtica urens. The note with it: reported by Hoechst et al., 1991; cited from earlier work.
Setting [2] is: Table 1, 7 DAA, L-glufosinate ammonium 150, haloxyfop 50 g a.i./ha.
Setting [3] is: Table 1, 14 DAA, L-glufosinate ammonium 150, haloxyfop 50 g a.i./ha.
Where [4] appears, read: Table 4, 7 DAA, L-glufosinate ammonium 150, haloxyfop 50 g ai/ha.
The mark [5] stands for this setting: Table 2, 28 DAA, L-glufosinate ammonium 150, quizalofop-ethyl 25 g a.i./ha.
Where [6] appears, read: Table 2, 35 DAA, L-glufosinate ammonium 150, quizalofop-ethyl 25 g a.i./ha.
The mark [7] stands for this setting: Table 3, 14 DAA, L-glufosinate ammonium 150, quizalofop-p-tefuryl 25 g/ha.
The mark [8] stands for this setting: Table 3, 21 DAA, L-glufosinate ammonium 150, quizalofop-p-tefuryl 25 g/ha.
Setting [9] is: Table 3, 28 DAA, L-glufosinate ammonium 150, quizalofop-p-tefuryl 25 g/ha.
Where [10] appears, read: Table 3, 35 DAA, L-glufosinate ammonium 150, quizalofop-p-tefuryl 25 g/ha.
The mark [11] stands for this setting: Table 5, 21 DAA, L-glufosinate ammonium 150, quizalofop-ethyl 25 g ai/ha.
The mark [12] stands for this setting: Table 9, 3 DAA, L-glufosinate ammonium 150, quizalofop-ethyl 25 g/ha.
Setting [13] is: Table 9, 28 DAA, L-glufosinate ammonium 150, quizalofop-ethyl 25 g/ha.
The mark [14] stands for this setting: Table 9, 35 DAA, L-glufosinate ammonium 150, quizalofop-ethyl 25 g/ha.
Where [15] appears, read: Table 10, 3 DAA, L-glufosinate ammonium 150, quizalofop-p-tefuryl 25 g/h.
The mark [16] stands for this setting: Table 10, 28 DAA, L-glufosinate ammonium 150, quizalofop-p-tefuryl 25 g/h.
Setting [17] is: Table 10, 35 DAA, L-glufosinate ammonium 150, quizalofop-p-tefuryl 25 g/h.

With `CC(Oc1ccc(Oc2ncc(C(F)(F)F)cc2Cl)cc1)C(=O)O` (stereo not shown) [Haloxyfop, haloxyfop], the Control % came to 8% with Spermacoce latifolia (7 DAA); 8.7% with Spermacoce latifolia (14 DAA); 10% in the assay with Spermacoce latifolia (21 DAA); 31% in the assay on Spermacoce latifolia (28 DAA); 9.3% in the assay on Spermacoce latifolia (35 DAA); 26.7% with Brachiaria decumbens (setting [2]). In addition, the Control % in the assay with Brachiaria decumbens (setting [3]) turned out to be 75.3%. Further, the “% control” value in the assay on Eleusine indica (setting [4]) came out at 25%; with Glycine max (3 DAA) it was 5%; with Glycine max (7 DAA), 13.3%; in the assay on Glycine max (14 DAA) it was 15%; with Glycine max (21 DAA) it was 12.3%; in the assay with Glycine max (28 DAA), 12.3%. The “% control” value in the assay with Glycine max (35 DAA) is given as 12.3%.
Turning to `CP(=O)(O)CC[C@H](N)C(=O)O.N` [L-glufosinate ammonium, ammonium (2S)-2-amino-4-(methylphosphinato)butyric acid], the Control % with Spermacoce latifolia (7 DAA) worked out at 31.7%; with Spermacoce latifolia (14 DAA) it was 81.7%; in the assay with Spermacoce latifolia (21 DAA), 83.3%; in the assay on Spermacoce latifolia (28 DAA) it was 83.3%; in the assay with Spermacoce latifolia (35 DAA), 83.3%; in the assay with Brachiaria decumbens (setting [2]) it was 50%. Also, the Control % in the assay on Brachiaria decumbens (setting [3]) came to 79.3%; in the assay on Brachiaria decumbens (setting [5]), 60%; in the assay with Brachiaria decumbens (setting [6]), 55%; in the assay on Brachiaria decumbens (setting [7]) it was 75%; with Brachiaria decumbens (setting [8]), 70%; in the assay on Brachiaria decumbens (setting [9]) it was 60%. Also, the Control % in the assay on Brachiaria decumbens (setting [10]) worked out at 55%; in the assay on Eleusine indica (21 DAA), 25%; with Eleusine indica (28 DAA) it was 20%; in the assay on Eleusine indica (35 DAA), 18%; in the assay on Glycine max (setting [12]) it was 50%; with Glycine max (setting [13]), 40%. The Control % is listed as 40% with Glycine max (setting [14]), 50% in the assay with Glycine max (setting [15]), 60% in the assay on Glycine max (setting [16]) and 55% in the assay on Glycine max (setting [17]). The “% control” value in the assay with Eleusine indica (setting [4]) is listed as 50.7%; in the assay on Eleusine indica (setting [11]) it was 35%; in the assay with Glycine max (3 DAA) it was 15%; with Glycine max (7 DAA) it was 53.3%; with Glycine max (14 DAA), 71%; in the assay with Glycine max (21 DAA) it was 66.7%. Besides, the “% control” value in the assay with Glycine max (28 DAA) was 56.7%; in the assay on Glycine max (35 DAA) it was 41.7%.
As to `C[C@@H](Oc1ccc(Oc2cnc3cc(Cl)ccc3n2)cc1)C(=O)OCC1CCCO1` (stereo partly shown) [quizalofop-p-tefuryl], the Control % with Brachiaria decumbens (setting [7]) worked out at 20%; with Brachiaria decumbens (setting [8]), 10%; in the assay on Brachiaria decumbens (setting [9]), 5%; with Brachiaria decumbens (setting [10]), 5%; in the assay with Eleusine indica (21 DAA), 10%; in the assay on Eleusine indica (28 DAA) it was 5%. The Control % is given as 5% in the assay with Eleusine indica (35 DAA), 0% in the assay with Glycine max (setting [15]), 0% in the assay with Glycine max (setting [16]) and 0% with Glycine max (setting [17]).
Turning to `CP(=O)(O)CCC(N)C(=O)O` (racemic) [glufosinate, DL-homoalanin-4-yl(methyl)phosphinic acid], the “control of weed species” value in assay [1] was “either not combated, or only weakly combated”.
As for `CCOC(=O)C(C)Oc1ccc(Oc2cnc3cc(Cl)ccc3n2)cc1` (stereo not shown) [quizalofop-ethyl], the Control % was 35% in the assay on Brachiaria decumbens (setting [5]); 30% with Brachiaria decumbens (setting [6]); 0% with Glycine max (setting [12]); 0% in the assay on Glycine max (setting [13]); 0% with Glycine max (setting [14]). The “% control” value in the assay on Eleusine indica (setting [11]) worked out at 95%.

Values taken from patent publication US20260206764A1, “AN HERBICIDAL COMBINATION, COMPOSITION AND METHOD OF CONTROLLING WEEDS USING THE SAME” (priority 2023, published 2026).
